Ki data for 17 compounds are collected here from US20130252951A1, “7-HYDROXY-PYRAZOLO[1,5-A] PYRIMIDINE COMPOUNDS AND THEIR USE AS CCR2 RECEPTOR ANTAGONISTS” (Proximagen Limited, priority 2010, published 2013).

Chain of human CCR2 (P41597 whole entry): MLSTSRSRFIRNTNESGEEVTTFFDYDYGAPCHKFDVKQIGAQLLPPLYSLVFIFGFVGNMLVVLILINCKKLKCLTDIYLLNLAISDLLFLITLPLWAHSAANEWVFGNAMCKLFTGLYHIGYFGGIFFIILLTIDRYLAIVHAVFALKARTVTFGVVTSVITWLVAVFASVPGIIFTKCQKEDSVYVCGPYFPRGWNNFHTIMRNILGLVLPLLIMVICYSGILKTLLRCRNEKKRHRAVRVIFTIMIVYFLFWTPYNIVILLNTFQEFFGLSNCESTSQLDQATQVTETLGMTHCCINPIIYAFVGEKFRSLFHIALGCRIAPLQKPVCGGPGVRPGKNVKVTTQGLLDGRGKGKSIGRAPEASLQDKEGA

This test concerns the target human CCR2 (Homo sapiens, UniProt P41597). Put plainly: CCR2 functional calcium assay (FLIPR calcium flux, hMCP-1 challenge). It is filed as cell-based. Also noted: expressed in transfected cells; host or cells: HEK293 EBNA cells. The conditions noted are these: HEK293 EBNA cells transfected with human CCR2, hMCP-1 challenge; read-out: Functional CCR2 fKi. The text has this: The CCR2 receptor couples through the Gi/Gq signaling pathway and results in activation of calcium mobilization. The functional activity of test compounds was routinely tested by measuring the ability of compounds to antagonize CCR2 activity in a dose dependent manner, in HEK293 EBNA cells transfected with the human CCR2 receptor (hMCP-1 challenge), using a calcium flux Fluorescent Imaging Plate Reader FLIPR assay. Non-transfected HEK293 EBNA cells were used as control of non-specific response.
Briefly, test compounds were dissolved in dimethyl sulfoxide (DMSO) to a concentration of 10 mM and stored in matrix screenmate racks. The required amount of compound was transferred to 96-well compound plates on the day of assay and diluted in assay buffer to the required final concentration; dose-response measurements were assayed by making 1:3 serial dilutions to produce 10 point curves. The compounds were then transferred to 384-well assay plates ready for use. Top concentrations were adjusted depending on the potency of the compounds with a typical concentration range of 30 μM to 0.5 nM being used. The assay buffer used was HBSS buffer supplemented with 20 mM HEPES and 0.1% BSA, pH7.4. The loading/wash buffers were the same as the assay buffer.
Cells were suspended in culture medium at a density of 10000 cells/50 μl (the cell culture media composition was DMEM high glucose supplemented with 10% dialyzed FBS, 250 μg/ml Geneticin, and 400 μg/ml Hygromycin B), transferred to 384-well black/clear Costar plates (Costar #3712) (50 μl/well) and incubated at 37° C., in a 5% CO2/95% air humidified incubator for 16 h. The cells were washed with assay buffer at 37° C. using the Biotek ELx 405, washing 3 times, leaving 20 μl buffer in the well. 20 μl Fluo-4 (Fluo-4 stock solution (1 mM) was prepared by dissolving one vial of Fluo-4 (50 μg) in 45 μl of pluronic acid (240 mg/ml in DMSO). This stock solution of Fluo-4 was then diluted 250 times with loading buffer to give a Fluo-4 concentration of 4 μM. The dye solution (used within 2 h and kept away from light) was added to each well using a repeating multichannel pipette; the cells were then incubated at 37° C. for 60 min. Following the incubation, cells were washed in assay buffer at 37° C. using the Biotek ELx 405, washing 3 times, leaving 40 μl in each well and incubated for 10 min at 37° C. before use. A combined agonist/antagonist protocol was used. Compound (antagonist) was added to the cell plate using the FLIPR. Basal fluorescence was recorded every second for 10 seconds prior to compound addition (10 μl) and fluorescence recorded every second for 1 minute then every 6 seconds for a further 1 minute. Agonist (MCP-1) was then added using the FLIPR and fluorescence recorded as described above.
The positive control (agonist) was human recombinant MCP-1 which was stored as a stock concentration of 10 μM in distilled water and stored at −20° C. (maximal response: 30 nM; EC50 dose: 3-5 nM). The reference compound (antagonist) was RS102895 which was used as a 10 mM DMSO solution and stored at −20° C.
FLIPR responses were measured as peak minus basal fluorescence intensity and were expressed as a percentage of EC50 MCP-1 challenge. Curve-fitting and parameter estimation were carried out using GraphPad Prism 4.0 (GraphPad Software Inc., San Diego, Calif.).
Consider `Cc1nc2ccnn2c(O)c1Sc1cccc(F)c1` [Example 77, 6-[(3-Fluorophenyl)sulfanyl]-5-methyl-pyrazolo[1,5-a]pyrimidin-7-ol], for which the Ki lay within 100 to 1000 nM.

With `Cc1nc2ccnn2c(O)c1Nc1cccc(F)c1` [Example 78, 6-[(3-Fluorophenyl)amino]-5-methylpyrazolo[1,5-a]pyrimidin-7-ol], the Ki is 100 to 1000 nM.

Consider `CCN(c1cccc(F)c1)c1c(C)nc2ccnn2c1O` [Example 79, 6-[Ethyl(3-fluorophenyl)amino]-5-methylpyrazolo[1,5-a]pyrimidin-7-ol], for which the Ki is 100 to 1000 nM.

As for `Cc1nc2ccnn2c(O)c1N(C)c1cccc(F)c1` [Example 80, 6-[(3-Fluorophenyl)(methyl)amino]-5-methylpyrazolo[1,5-a]pyrimidin-7-ol], the Ki fell in the range of 100 to 1000 nM.

For the compound `COC(=O)c1nc2ccnn2c(O)c1Cc1cccc(Cl)c1` [Example 81, Methyl 6-[(3-chlorophenyl)methyl]-7-hydroxypyrazolo[1,5-a]pyrimidine-5-carboxylate], the Ki is under 10 nM.

With `CC(C)OC(=O)c1nc2ccnn2c(O)c1Cc1cccc(Cl)c1` [Example 82, Propan-2-yl 6-[(3-chlorophenyl)methyl]-7-hydroxypyrazolo[1,5-a]pyrimidine-5-carboxylate], the Ki is under 10 nM.

On to `COC(=O)c1nc2ccnn2c(O)c1Cc1ccc(Cl)c(Cl)c1` [Example 83, Methyl 6-[(3,4-dichlorophenyl)methyl]-7-hydroxypyrazolo[1,5-a]pyrimidine-5-carboxylate], for which the Ki is under 10 nM.

As for `CC(C)OC(=O)c1nc2ccnn2c(O)c1Cc1ccc(Cl)c(Cl)c1` [Example 84, Propan-2-yl 6-[(3,4-dichlorophenyl)-methyl]-7-hydroxy pyrazolo[1,5-a]-pyrimidine-5-carboxylate], the Ki was under 10 nM.

On to `O=C(O)c1nc2ccnn2c(O)c1Cc1cccc(Cl)c1` [Example 85, 6-[(3-Chlorophenyl)methyl]-7-hydroxypyrazolo[1,5-a]pyrimidine-5-carboxylic acid], for which the Ki lay in the range of 100 to 1000 nM.

For `CC(C)OC(=O)c1nc2ccnn2c(O)c1Cc1cccc(C(F)(F)F)c1` [Example 86, Propan-2-yl7-hydroxy-6-{[3-(trifluoromethyl)phenyl]methyl}pyrazolo[1,5-a]pyrimidine-5-carboxylate], the Ki was 10 to 100 nM.

Regarding `CC(C)OC(=O)c1nc2ccnn2c(O)c1Cc1ccc(F)c(Cl)c1` [Example 87, Propan-2-yl6-[(3-chloro-4-fluorophenyl)methyl]-7-hydroxypyrazolo[1,5-a]pyrimidine-5-carboxylate], the Ki was under 10 nM.

Turning to `CC(C)OC(=O)c1nc2ccnn2c(O)c1Cc1ccc(Cl)c(F)c1` [Example 88, Propan-2-yl6-[(4-chloro-3-fluorophenyl)methyl]-7-hydroxypyrazolo[1,5-a]pyrimidine-5-carboxylate], the Ki is under 10 nM.

In the case of `COC(=O)c1nc2ccnn2c(O)c1Oc1ccc(Cl)c(Cl)c1` [Example 89, Methyl 6-(3,4-dichlorophenoxy)-7-hydroxypyrazolo[1,5-a]pyrimidine-5-carboxylate], the Ki was under 10 nM.

As to `OCc1nc2ccnn2c(O)c1Cc1ccc(Cl)cc1` [Example 90, 6-[(4-Chlorophenyl)methyl]-5-(hydroxymethyl)pyrazolo[1,5-a]pyrimidin-7-ol], the Ki fell in the range of 100 to 1000 nM.

With `Oc1c(Cc2ccc(Cl)cc2)c(CN2CCOCC2)nc2ccnn12` [Example 91, 6-[(4-Chlorophenyl)methyl]-5-(morpholin-4-ylmethyl)pyrazolo[1,5-a]pyrimidin-7-ol], the Ki lay in the range of 100 to 1000 nM.

Turning to `Cc1noc(-c2nc3ccnn3c(O)c2Cc2cccc(F)c2)n1` [Example 92, 6-[(3-Fluorophenyl)methyl]-5-(3-methyl-1,2,4-oxadiazol-5-yl)pyrazolo[1,5-a]pyrimidin-7-ol], the Ki was 100 to 1000 nM.

Turning to `CC(C)(O)c1nc2ccnn2c(O)c1Cc1cccc(F)c1` [Example 93, 6-[(3-Fluorophenyl)methyl]-5-(2-hydroxypropan-2-yl)pyrazolo[1,5-a]pyrimidin-7-ol], the Ki was 100 to 1000 nM.
